Test results: patent US8937077B2, “Bicyclic diamines as janus kinase inhibitors” (Merck Sharp & Dohme Corp., priority 2010, dated 2015)
Where two headings read alike, the source gives them in different places.

Target: T1, Jak1 (Homo sapiens, UniProt P23458)
T1 construct: using a recombinant purified GST-tagged catalytic domain for each enzyme; GST; purchased Invitrogen M4290
Test: Jak Biochemical HTRF Assay (Jak1)
Details: recombinant GST-tagged catalytic domain
Procedure, shortened: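 Recombinant GST-tagged Jak1 catalytic domain was preincubated with compound and peptide substrate for 30 min at room temperature, and the reaction was then started with ATP and run 120 min. Buffer contained 2 mM DTT and 0.05% BSA. Read-out was HTRF (665/615 nm) with Eu-pY20 antibody and streptavidin-Dylight, and IC50 values came from 4-parameter fits of percent inhibition.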

[1] = IC50 class, read-out: Jak1 activity
[2] = 31.8 μM ATP, read-out: Representative IC50 values

T1 sequence (P23458 875-1153 limits assumed): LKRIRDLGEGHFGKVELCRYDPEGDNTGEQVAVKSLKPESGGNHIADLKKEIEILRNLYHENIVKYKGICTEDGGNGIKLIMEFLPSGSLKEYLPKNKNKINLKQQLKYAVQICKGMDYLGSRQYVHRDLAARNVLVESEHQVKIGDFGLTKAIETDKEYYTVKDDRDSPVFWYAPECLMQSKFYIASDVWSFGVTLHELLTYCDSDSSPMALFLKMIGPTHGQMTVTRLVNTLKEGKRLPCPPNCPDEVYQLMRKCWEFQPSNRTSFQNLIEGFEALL

IC50 [1] [nM] | IC50 [2] [nM] | SMILES
100 to 1000 | – | c1ccc(-c2nnc(N3CCCC4C3CCN4c3ncnc4[nH]ccc34)o2)cc1 [Example 31, (3aS,7aS and 3aR,7aR) 4-[4-(5-phenyl-1,3,4-oxadiazol-2-yl)octahydro-1H-pyrrolo[3,2-b]pyridin-1-yl]-7H-pyrrolo[2,3-d]pyrimidine]
10 to 100 | – | CC(C)S(=O)(=O)N1CCC[C@@H]2[C@H]1CCN2c1ncnc2[nH]ccc12 [Example 32-1, 4-{(3aR,7aR)-4-[(1-methylethyl)sulfonyl]octahydro-1H-pyrrolo[3,2-b]pyridin-1-yl}-7H-pyrrolo[2,3-d]pyrimidine]
1 to 10 | 7 | O=S(=O)(CCc1ccccc1)N1CCC[C@@H]2[C@H]1CCN2c1ncnc2[nH]ccc12 [Example 32-2, 4-{(3aR,7aR)-4-[(2-phenylethyl)sulfonyl]octahydro-1H-pyrrolo[3,2-b]pyridin-1-yl}-7H-pyrrolo[2,3-d]pyrimidine]
10 to 100 | 14 | O=S(=O)(c1ccco1)N1CCC[C@@H]2[C@H]1CCN2c1ncnc2[nH]ccc12 [Example 32-4, 4-[(3aR,7aR)-4-(furan-2-ylsulfonyl)octahydro-1H-pyrrolo[3,2-b]pyridin-1-yl]-7H-pyrrolo[2,3-d]pyrimidine]
